Experimental data as given in paper PMC7055211 (Scientific Reports, 2020).
“Also recorded” adds a separate entry of the source. Where two headings read alike, the source gives them in different places.

Legend:
HIV-1 = assay: microbe, parasite or virus in culture; type: cell-based; conditions: for EC50: Human immunodeficiency virus 1, HEK-293T
[1] = WST-1 cellular metabolism measurement for the five prazoles (CC50); type: cell-based; conditions: human, 293 T cells, 50% metabolic activity of control, WST reagent, read-out: Cytotoxicity (CC50)
[2] = test system: pseudotyped virus using the EBOV Env (G) protein; conditions: cited from earlier work
[3] = Prazole degradation rate: prodrug remaining in pH 5.8 buffer by 1D proton NMR; conditions: for prodrug remaining at 17 hours: 1D proton NMR
EBOV (Zaire) = assay: microbe, parasite or virus in culture; type: cell-based, Ebola virus
EBV = type: cell-based, Epstein Barr virus; conditions: CLIX-FZ; for Virus Production (resistant or susceptible), EBV: BALF5
Tsg101 UEV domain = biological target: T1, Tsg101 UEV domain (Homo sapiens, UniProt Q99816); assay: NMR chemical shift perturbations of Tsg101 UEV domain complexed with prazoles; type: binding; conditions: 15N-Tsg101 UEV, pH 5.8, 300 K
T1 construct: purified ^15N-labeled Tsg101 UEV domain protein complexed to various prazoles; made in house
T1 sequence (Q99816 2-145 limits assumed): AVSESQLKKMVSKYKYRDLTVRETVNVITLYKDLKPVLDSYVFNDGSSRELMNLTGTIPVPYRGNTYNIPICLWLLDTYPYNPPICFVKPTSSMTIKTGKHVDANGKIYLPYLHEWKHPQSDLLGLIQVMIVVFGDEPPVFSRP

[4] = test system: HIV-1 P7L-Gag (disrupted PTAP motif); type: cell-based
MAYV TRVL 15537 = type: cell-based, Mayaro virus
in vitro [5] = conditions: human
DENV 2 strain 16681 = type: cell-based, Dengue virus type 2
CLIX-FZ cells = assay: WST-1 metabolic activity of CLIX-FZ cells; type: cell-based; conditions: 40 μM concentration range, WST-1, 24 hr
Experimental: Figure 4 EBV replication is tenatoprazole-sensitive. Latent EBV was reactivated in CLIX-FZ cells by addition of doxycycline in the presence of DMSO (black bars) or DMSO plus tenatoprazole (20 µM or 40 µM, grey bars); non-treated cells are shown as white bars. After 72 hr, cells and conditioned media were harvested. Panel A, extracellular EBV DNA measured in pellet fraction of conditioned media. Panel B, intracellular EBV DNA measured in lysed cells. EBV DNA was determined by quantitative-PCR (qPCR) for the EBV BALF5 gene. EBV DNA copy number from each preparation was normalized to the DMSO-treated control. Panel C, metabolic activity of cells in the presence of tenatoprazole. The cells were grown for 24 hr in media containing the indicated concentrations of doxycycline and tenatoprazole followed by assessment of metabolic activity assessed using the WST-1 assay. Panel D, fractionation of intracellular DNA. […] DNA was extracted from each fraction and the relative number of EBV genomes from each fraction was determined by qPCR using primers directed towards the EBV BALF5 gene. […]
Metabolic activity of the cells in the presence of the prazole drugs for 24 hr was assessed using the WST-1 assay (Roche Applied Science) following the manufacturer's protocol.

[6] = test system: Mahoney strain of poliovirus; type: cell-based, Poliovirus Type I Mahoney; conditions: 293 T cells, up to 100 μM, plaque assay
HIV-1 Gag-HA VLP = type: cell-based
in vitro [7] = conditions: human; remark: listed apart in the source
in vitro [8] = conditions: human; remark: listed apart in the source
ZIKV PRVABC59 = type: cell-based, Zika virus
[9] = read-out: Approximate Effective Concentration (EC50)
[10] = read-out: EC50, inhibition of HIV-1 production
[11] = doxycycline, 20 µM and 40 μM, 72 hr, qPCR

COc1ccc2nc([S@@+]([O-])Cc3ncc(C)c(OC)c3C)[nH]c2c1 [Esomeprazole, Esomeprazole magnesium hydrate]
Selectivity Index (CC50/EC50) (HIV-1): 1.0
EC50 (HIV-1; [9]): 75 µM
EC50 (HIV-1; [10]): ~75 µM
CC50 at 24 h [1]: 75 µM
EC50 [2]: 50 µM
prodrug remaining at 17 hours ([3]; 2 mM prazole, 300 K): ~ 55%
inhibitory effect on EBOV (EBOV (Zaire)): no significant inhibitory effect

COc1ccnc(C[S+]([O-])c2nc3ccc(OC(F)F)cc3[nH]2)c1OC (stereo not shown) [Pantoprazole, pantoprazole sodium hydrate]
inhibition of HIV-1 production (in words) (HIV-1): negligible inhibitory activity
Selectivity Index (CC50/EC50) (HIV-1; HIV-1, Table 3): <0.5
EC50 (HIV-1; [9]): > 75 µM
CC50 at 24 h [1]: 40 µM
prodrug remaining at 17 hours ([3]; 2 mM prazole, 300 K): 96%

Cc1c(OCC(F)(F)F)ccnc1C[S+]([O-])c1nc2ccccc2[nH]1 (stereo not shown) [Lansoprazole, lansoprazole]
Selectivity Index (CC50/EC50) (HIV-1; HIV-1, Table 3): 2.0
EC50 (HIV-1; [9]): 25 µM
EC50 (HIV-1; [10]): ~25 µM
CC50 at 24 h [1]: 50 µM
prodrug remaining at 17 hours ([3]; 2 mM prazole, 300 K): 20%

Cc1c(OCC(F)(F)F)ccnc1C[S@@+]([O-])c1nc2ccccc2[nH]1 [dexlansoprazole]
conversion rate, dexlansoprazole compared with lansoprazole ([3]; Supplemental Fig. 3A): no significant difference in rates

COCCCOc1ccnc(C[S+]([O-])c2nc3ccccc3[nH]2)c1C (stereo not shown) [Rabeprazole, rabeprazole sodium]
inhibition of HIV-1 production (in words) (HIV-1): strongest inhibitory effect
Selectivity Index (CC50/EC50) (HIV-1; HIV-1, Table 3): 10
EC50 (HIV-1; [9]): 15 µM
EC50 (HIV-1; [10]): ~15 µM
CC50 at 24 h [1]: 150 µM
time course of prodrug disappearance ([3]; 2 mM prazole, 300 K): completely disappearing in less than ten hours

COc1ccc2[nH]c([S+]([O-])Cc3ncc(C)c(OC)c3C)nc2n1 (stereo not shown) [Tenatoprazole, tenatoprazole]
Selectivity index (CC50/EC50), EBV (EBV): ~4
intracellular EBV load (EBV; [11]): increased
number of released (extracellular) EBV particles (EBV; [11]): dose-dependent reduction
Virus Production (resistant or susceptible), EBV (EBV; qPCR): Susceptible
Virus Production (resistant or susceptible), EBV (EBV; qPCR, listed as tenatoprazole): sensitive
chemical shift change of backbone amide of S41 (Tsg101 UEV domain): 0.29 ppm
Alix rescue of P7L-Gag release in presence of tenatoprazole ([4]; 293T, concentration range to which the WT is susceptible): 2–3 fold
Alix-mediated stimulation of p25 to p24 maturation ([4]; in the presence or absence of the drug): ~ 3 fold
Virus Production (resistant or susceptible), MAYV (MAYV TRVL 15537): sensitive; also recorded: Susceptible (2.5)
reduction of MAYV titer (MAYV TRVL 15537): > 2 log10
Selectivity index (CC50/EC50), MAYV (MAYV TRVL 15537; 293 T): Susceptible (2.5)
viability at 80 µM (in vitro [5]): > 80%
Virus Production (resistant or susceptible), HIV-1 (HIV-1): sensitive
Selectivity Index (CC50/EC50) (HIV-1; HIV-1, Table 3): 2.5
EC50 (HIV-1; [9]): 50 µM
EC50 (HIV-1; [10]): ~50 µM
CC50 at 24 h [1]: 125 µM
DENV replication, tenatoprazole susceptibility (DENV 2 strain 16681): no tenatoprazole susceptibility
Virus Production (resistant or susceptible), DENV (DENV 2 strain 16681; 293 T, infectivity, FFU): Resistant
metabolic capacity of host CLIX-FZ cells (CLIX-FZ cells): some impairment of metabolic capacity
PV tenatoprazole susceptibility [6]: no tenatoprazole susceptibility
prodrug remaining at 17 hours ([3]; 2 mM prazole, 300 K): ~ 5%
Gag accumulation in cell lysate (HIV-1 Gag-HA VLP): drug concentration-dependent decline in Gag accumulation
VLP production (HIV-1 Gag-HA VLP): dose-dependent inhibition of VLP production
VLP release efficiency (HIV-1 Gag-HA VLP): no change
CC50 (in vitro [7]): 123 µM
Selectivity index (CC50/EC50), EBOV (EBOV (Zaire)): Susceptible (1.6)
EC50 (EBOV (Zaire); Zaire ebolavirus, HeLa, 24 h, read-out: EC50, inhibition of EBOV spread): 80 µM
CC50 (in vitro [8]): 129 µM
reduction in ZIKV infectious virus output (ZIKV PRVABC59): < 2 fold
Virus Production (resistant or susceptible), ZIKV (ZIKV PRVABC59; 293 T, infectivity, PFU): Resistant
